According to ChEMBL document CHEMBL5365534, “Discovery of a Novel Ketohexokinase Inhibitor with Improved Drug Distribution in Target Tissue for the Treatment of Fructose Metabolic Disease” (J Med Chem, 2023):
Converted amounts (≈) assume the structure as drawn.

Experiments:
physchem [1] = conditions: buffer, pH 7.4
Ketohexokinase = target: T1, Ketohexokinase (Homo sapiens, UniProt P50053)
T1 sequence (P50053 whole entry): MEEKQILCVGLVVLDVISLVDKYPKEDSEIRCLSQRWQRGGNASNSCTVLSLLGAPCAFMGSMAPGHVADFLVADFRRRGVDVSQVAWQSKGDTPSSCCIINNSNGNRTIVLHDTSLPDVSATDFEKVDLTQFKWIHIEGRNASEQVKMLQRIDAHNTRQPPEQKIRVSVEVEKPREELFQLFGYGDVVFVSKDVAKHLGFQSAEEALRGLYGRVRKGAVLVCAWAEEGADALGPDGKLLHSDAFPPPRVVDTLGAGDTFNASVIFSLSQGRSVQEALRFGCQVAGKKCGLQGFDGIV

in vitro [2] = conditions: human, Caco-2
physchem [3] = experiment: physchem
in vitro [4] = conditions: human, Caco-2; remark: listed apart in the source
in vitro [5] = conditions: human, liver microsomes
in vitro [6] = conditions: rat, liver microsomes
in vitro [7] = conditions: dog, liver microsomes

Question: Which logD (physchem [1]) does the source give for C[C@H]1CCN1c1nc(N2C[C@@H](CC(=O)O)[C@H](O)C2)cc(C(F)(F)F)c1C#N (racemic) here?
Answer: The logD was 0.93.

Question: What about the IC50 (Ketohexokinase) of the same compound?
Answer: The IC50 was 138 nM.

Question: What about the efflux ratio (in vitro [2]) of the same compound?
Answer: Its efflux ratio is 218.

Question: What about the solubility kinetic (physchem [3]) of the same compound?
Answer: The solubility kinetic was 889 µM (≈ 342 µg/mL).

Question: What about the Papp A→B at 2 h, 10 µM (in vitro [4]) of the same compound?
Answer: Its Papp A→B at 2 h, 10 µM is 0.09 ×10⁻⁶ cm/s.

Question: Which results are given for O=C(O)CC[C@H]1CCN(c2nc(N3CC4CCCC43)nc3c2CCC3(F)F)C1 (some centres not stated)?
Answer: IC50 (Ketohexokinase): > 1000 nM; Kinetic_solubility: Not Determined(Insoluble)

Question: For C[C@H]1CCN1c1nc(N2C[C@H]3CC[C@H](C(=O)O)[C@H]3C2)cc(C(F)(F)F)c1C#N (racemic), which logD (physchem [1]) is on record?
Answer: Its logD is 2.31.

Question: And the IC50 (Ketohexokinase)?
Answer: The IC50 was 21.9 nM.

Question: What about the efflux ratio (in vitro [2]) of the same compound?
Answer: The efflux ratio was 1.13.

Question: What about the microsomal CLint at 2 h, 1 µM (in vitro [5]) of the same compound?
Answer: Its microsomal CLint at 2 h, 1 µM is 10.4 µL/min/mg.

Question: What about the solubility kinetic (physchem [3]) of the same compound?
Answer: Its solubility kinetic is 230 µM (≈ 90.5 µg/mL).

Question: What about the Papp A→B at 2 h, 10 µM (in vitro [4]) of the same compound?
Answer: Its Papp A→B at 2 h, 10 µM is 18.3 ×10⁻⁶ cm/s.

Question: Which logD (physchem [1]) does the source give for C[C@H]1CCN1c1nc(N2CC[C@H](CC(=O)O)C2)c2c(n1)C(F)(F)CC2 here?
Answer: The logD was 0.01.

Question: What about the IC50 (Ketohexokinase) of the same compound?
Answer: Its IC50 is 49 nM.

Question: And the efflux ratio (in vitro [2])?
Answer: The efflux ratio was 11.2.

Question: What about the solubility kinetic (physchem [3]) of the same compound?
Answer: Its solubility kinetic is 999 µM (≈ 352 µg/mL).

Question: And the Papp A→B at 2 h, 10 µM (in vitro [4])?
Answer: The Papp A→B at 2 h, 10 µM was 1.47 ×10⁻⁶ cm/s.

Question: What does the source list for C[C@H]1CCN1c1nc(N2CCC3(CC3C(=O)O)C2)cc(C(F)(F)F)n1 (some centres not stated)?
Answer: IC50 (Ketohexokinase): > 1000 nM; Kinetic_solubility: Not Determined(Insoluble)

Question: With C[C@H]1CCN1c1nc(N2CC[C@H](CCC(=O)O)C2)c2c(n1)C(F)(F)CCC2 as the compound, how does the IC50 (Ketohexokinase) read?
Answer: The IC50 was 89.5 nM.

Question: And the Kinetic_solubility?
Answer: The Kinetic_solubility was “Not Determined(Insoluble)”.

Question: What does the source list for C[C@H]1CCN1c1nc(N2CCC3(CC(C(=O)O)C3)C2)cc(C(F)(F)F)c1C#N (some centres not stated)?
Answer: microsomal CLint at 2 h, 1 µM (in vitro [6]): 4.5 µL/min/mg; microsomal CLint at 2 h, 1 µM (in vitro [5]): 6.2 µL/min/mg; microsomal CLint at 2 h, 1 µM (in vitro [7]): 5.5 µL/min/mg

Question: Which results are given for O=C(O)CC[C@H]1CCN(c2nc(N3CC[C@@H]3C(F)(F)F)nc3c2CCC3(F)F)C1?
Answer: logD (physchem [1]): 0.86; IC50 (Ketohexokinase): 25.9 nM; microsomal CLint at 2 h, 1 µM (in vitro [6]): 64.6 µL/min/mg; efflux ratio (in vitro [2]): 7.81; solubility kinetic (physchem [3]): > 1000 µM; Papp A→B at 2 h, 10 µM (in vitro [4]): 5.14 ×10⁻⁶ cm/s

Question: Which logD (physchem [1]) does the source give for C[C@H]1CCN1c1nc(N2CC[C@H](OCC(=O)O)C2)c2c(n1)C(F)(F)CC2 here?
Answer: Its logD is -1.1.

Question: And the IC50 (Ketohexokinase)?
Answer: The IC50 was 53.9 nM.

Question: And the efflux ratio (in vitro [2])?
Answer: Its efflux ratio is 19.9.

Question: What about the solubility kinetic (physchem [3]) of the same compound?
Answer: The solubility kinetic was greater than 1000 µM.

Question: What about the Papp A→B at 2 h, 10 µM (in vitro [4]) of the same compound?
Answer: Its Papp A→B at 2 h, 10 µM is 0.23 ×10⁻⁶ cm/s.

Question: What does the source list for C[C@H]1CCN1c1nc(N2CC(CC(=O)O)C(F)(F)C2)cc(C(F)(F)F)c1C#N (some centres not stated)?
Answer: logD (physchem [1]): 1.48; IC50 (Ketohexokinase): 108 nM; efflux ratio (in vitro [2]): 2.48; solubility kinetic (physchem [3]): > 1000 µM; Papp A→B at 2 h, 10 µM (in vitro [4]): 10.9 ×10⁻⁶ cm/s

Question: Which results are given for C[C@H]1CCN1c1nc(N2CCC3(CC3C(=O)O)C2)cc(C(F)(F)F)c1C#N (some centres not stated)?
Answer: logD (physchem [1]): 1.73; IC50 (Ketohexokinase): 108 nM; microsomal CLint at 2 h, 1 µM (in vitro [6]): 5.6 µL/min/mg; efflux ratio (in vitro [2]): 1.78; microsomal CLint at 2 h, 1 µM (in vitro [5]): 4.6 µL/min/mg; solubility kinetic (physchem [3]): > 1000 µM; Papp A→B at 2 h, 10 µM (in vitro [4]): 16.2 ×10⁻⁶ cm/s

Question: What does the source list for C[C@H]1CCN1c1nc(N2CC[C@H](CCC(=O)O)C2)cc(C(F)(F)F)n1?
Answer: IC50 (Ketohexokinase): 849 nM; Kinetic_solubility: Not Determined(Insoluble)

Question: Which IC50 (Ketohexokinase) does the source give for C[C@H]1CCN1c1nc(N2CCC(C)(CC(=O)O)C2)cc(C(F)(F)F)c1C#N (some centres not stated) here?
Answer: Its IC50 is greater than 1000 nM.

Question: And the Kinetic_solubility?
Answer: Its Kinetic_solubility is “Not Determined(Insoluble)”.

Question: For C[C@H]1CCN1c1nc(N2C[C@H]3CC[C@H](C(=O)O)[C@H]3C2)c2c(n1)C(F)(F)CC2 (racemic), which logD (physchem [1]) is on record?
Answer: The logD was 0.58.

Question: What about the IC50 (Ketohexokinase) of the same compound?
Answer: The IC50 was 34.7 nM.

Question: What about the efflux ratio (in vitro [2]) of the same compound?
Answer: Its efflux ratio is 4.54.

Question: And the solubility kinetic (physchem [3])?
Answer: Its solubility kinetic is greater than 1000 µM.

Question: And the Papp A→B at 2 h, 10 µM (in vitro [4])?
Answer: The Papp A→B at 2 h, 10 µM was 6.13 ×10⁻⁶ cm/s.
